Experimental data taken from PMC7736868, “Fluorescent ligands for dopamine D2/D3 receptors” (Scientific Reports, 2020).
Where two headings read alike, the source gives them in different places.

Key:
[1] = biological target: T1, porcine 5-HT1AR (Sus scrofa, UniProt A0A4X1UTF5); assay: Radioligand competition, [3H]WAY100,635, porcine cerebral cortex homogenates; type: binding; settings: mean of n experiments, read-out: Ki p5-HT1AR
T1 construct: homogenates of porcine cerebral cortex; from tissue; host or cells: porcine cerebral cortex homogenate
T1 sequence (A0A4X1UTF5 1-422): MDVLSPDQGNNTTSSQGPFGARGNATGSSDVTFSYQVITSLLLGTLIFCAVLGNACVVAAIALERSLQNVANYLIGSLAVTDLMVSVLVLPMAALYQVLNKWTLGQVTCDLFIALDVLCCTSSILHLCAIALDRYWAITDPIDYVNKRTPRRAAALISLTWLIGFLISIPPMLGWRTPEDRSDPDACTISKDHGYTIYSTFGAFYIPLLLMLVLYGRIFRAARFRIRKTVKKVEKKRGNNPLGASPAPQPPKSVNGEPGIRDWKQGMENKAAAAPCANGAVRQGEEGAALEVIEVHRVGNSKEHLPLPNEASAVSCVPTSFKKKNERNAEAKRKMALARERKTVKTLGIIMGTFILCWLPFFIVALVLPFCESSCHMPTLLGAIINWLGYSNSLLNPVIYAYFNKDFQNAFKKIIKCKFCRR

[2] = biological target: human D3R (Homo sapiens, UniProt P35462); assay: Radioligand competition, [3H]spiperone, CHO cell membranes
[3] = biological target: human D2LR (Homo sapiens, UniProt P14416); assay: as above
[4] = biological target: T2, human D4R (Homo sapiens, UniProt P21917); assay: as above
T2 sequence (P21917 1-419): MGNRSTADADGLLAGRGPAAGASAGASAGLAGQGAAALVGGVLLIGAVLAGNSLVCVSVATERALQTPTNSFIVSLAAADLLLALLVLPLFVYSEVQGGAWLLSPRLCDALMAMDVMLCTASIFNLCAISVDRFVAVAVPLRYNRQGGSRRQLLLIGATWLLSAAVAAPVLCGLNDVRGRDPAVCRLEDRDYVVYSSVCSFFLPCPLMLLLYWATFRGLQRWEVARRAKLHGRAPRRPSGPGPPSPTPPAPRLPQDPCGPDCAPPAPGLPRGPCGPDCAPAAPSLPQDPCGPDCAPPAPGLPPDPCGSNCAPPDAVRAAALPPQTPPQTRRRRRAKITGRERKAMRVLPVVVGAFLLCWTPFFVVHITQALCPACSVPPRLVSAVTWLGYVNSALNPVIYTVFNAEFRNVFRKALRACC

[5] = biological target: T3, porcine D1R (Sus scrofa, UniProt P50130); assay: Radioligand competition, [3H]SCH23390, porcine striatum homogenates; type: binding; settings: [3H]SCH23,390; mean of n experiments; read-out: Ki pD1R
T3 construct: homogenates obtained from porcine striatum; from tissue; host or cells: porcine striatum homogenate

[6] = biological target: porcine α1-AR; assay: Radioligand competition, [3H]prazosin, porcine cerebral cortex homogenates; settings: read-out: Ki pα1-AR, mean of n experiments
[7] = biological target: T4, porcine 5-HT2R (Sus scrofa, UniProt P50129); assay: Radioligand competition, [3H]ketanserin, porcine cerebral cortex homogenates; type: binding; settings: mean of n experiments, read-out: Ki p5-HT2R
T4 construct: homogenates of porcine cerebral cortex; from tissue; host or cells: porcine cerebral cortex homogenate

[8] = biological target: T5, D2SR (Homo sapiens, UniProt P14416); assay: Radioligand competition, [3H]spiperone, CHO cell membranes
[9] = biological target: T5, D2SR; assay: β-arrestin-2 recruitment (Pathhunter, DiscoverX), HEK293 cells, GRK2 coexpressed; type: cell-based; set-up: expressed in transfected cells; settings: for Emax: read-out: Emax β-arrestin-2 recruitment at D2SR, reference agonist quinpirole
[10] = biological target: secNluc-D3R (UniProt P35462+Q9GV45, A31E/A60N/A81I/F95D/I117V/K70R/L54V/L99Q/M102K/N193R/P142E/Q151K/Q38R/Q45L/V71I/Y165I); assay: NanoBRET association and dissociation kinetics, membranes; type: binding
Protocol: (a) Association of 10a at room temperature was measured by NanoBRET using secNluc-D3R membrane preparations and threefold serial dilutions of 10a (3.3–30 nM). […] Obtained IC50 values were transformed into Ki values applying the equation of Cheng and Prusoff[52]. […] Kinetic assays were monitored at room temperature and minimal possible cycle time of the CLARIOstar was used for each measurement. Data was fitted to one phase association and dissociation equations in PRISM6.0 to determine the kinetic constants. […] Addition of furimazine (1:5,000) and BRET measurements were carried out as described above. Data analysis was performed using the one site—fit Ki equation in PRISM6.0 to determine the inhibition constants (Ki) of the unlabeled ligands.

[11] = biological target: human isoform of D1R (Homo sapiens, UniProt P21728); assay: Radioligand competition at human isoform of D1R; type: binding; settings: assay performed with human isoform of D1R; [3H]SCH23,390 column
Protocol: Supplementary Table S1. Binding affinities of the test compounds. Binding affinities of the test compounds for porcine D1R, 5-HT 1AR, 5-HT 2R and α1-AR were determined by radioligand […]
a Data are indicated as m ean (and range) of (n) individual experim ents, each per form ed in triplicate; b assay perform ed with hum an isoform of D1R; c n. d. K i not determ ined as no com plete ligand displacem ent occurred;

[12] = read-out: Ki hD3R, [3H]spiperone, mean ± SEM
[13] = read-out: EC50 β-arrestin-2 recruitment at D2SR, mean ± SEM
[14] = read-out: Ki hD2LR, [3H]spiperone, mean ± SEM
[15] = read-out: Ki hD4R, [3H]spiperone, mean ± SEM
[16] = read-out: Ki hD2SR, [3H]spiperone, mean ± SEM

T4 sequence (P50129 whole entry): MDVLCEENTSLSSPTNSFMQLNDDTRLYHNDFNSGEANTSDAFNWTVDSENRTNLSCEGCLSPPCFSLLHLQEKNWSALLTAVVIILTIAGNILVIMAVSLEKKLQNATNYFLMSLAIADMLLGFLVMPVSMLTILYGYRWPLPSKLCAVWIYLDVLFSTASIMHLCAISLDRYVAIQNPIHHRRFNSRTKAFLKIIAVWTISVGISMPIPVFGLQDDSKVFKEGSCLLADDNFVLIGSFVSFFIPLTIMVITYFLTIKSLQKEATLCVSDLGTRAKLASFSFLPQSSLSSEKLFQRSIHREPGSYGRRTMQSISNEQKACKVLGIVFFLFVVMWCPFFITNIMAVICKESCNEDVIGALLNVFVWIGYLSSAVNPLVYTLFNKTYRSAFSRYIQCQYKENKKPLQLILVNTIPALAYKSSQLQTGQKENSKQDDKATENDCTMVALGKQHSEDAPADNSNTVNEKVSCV
T5 sequence (P14416 1-414 isoform P14416-2): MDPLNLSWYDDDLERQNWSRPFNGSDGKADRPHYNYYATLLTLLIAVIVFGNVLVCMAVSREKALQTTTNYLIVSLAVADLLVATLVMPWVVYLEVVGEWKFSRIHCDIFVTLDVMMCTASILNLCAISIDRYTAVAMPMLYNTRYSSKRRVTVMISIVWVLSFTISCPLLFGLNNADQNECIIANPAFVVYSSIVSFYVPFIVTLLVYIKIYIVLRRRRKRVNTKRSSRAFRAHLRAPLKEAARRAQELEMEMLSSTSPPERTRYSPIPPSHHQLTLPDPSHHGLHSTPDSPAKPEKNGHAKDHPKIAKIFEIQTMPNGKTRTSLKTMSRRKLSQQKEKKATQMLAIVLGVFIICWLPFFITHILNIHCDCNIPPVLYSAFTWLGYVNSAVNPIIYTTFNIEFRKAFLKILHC
human D2LR, sequence (P14416 whole entry): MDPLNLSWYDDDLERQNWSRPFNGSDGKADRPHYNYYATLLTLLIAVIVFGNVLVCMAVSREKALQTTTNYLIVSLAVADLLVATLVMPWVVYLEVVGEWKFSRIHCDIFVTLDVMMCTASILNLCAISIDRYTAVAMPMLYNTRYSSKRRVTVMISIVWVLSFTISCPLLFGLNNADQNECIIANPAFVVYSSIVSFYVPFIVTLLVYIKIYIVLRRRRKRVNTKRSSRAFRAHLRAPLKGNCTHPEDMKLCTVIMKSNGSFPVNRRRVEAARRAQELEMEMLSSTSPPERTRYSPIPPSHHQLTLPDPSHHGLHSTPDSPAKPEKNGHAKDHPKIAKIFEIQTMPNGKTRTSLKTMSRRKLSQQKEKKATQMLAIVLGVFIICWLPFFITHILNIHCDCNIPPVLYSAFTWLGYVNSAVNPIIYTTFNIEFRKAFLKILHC
secNluc-D3R, sequence (Q9GV45+P35462 fused with the stated changes): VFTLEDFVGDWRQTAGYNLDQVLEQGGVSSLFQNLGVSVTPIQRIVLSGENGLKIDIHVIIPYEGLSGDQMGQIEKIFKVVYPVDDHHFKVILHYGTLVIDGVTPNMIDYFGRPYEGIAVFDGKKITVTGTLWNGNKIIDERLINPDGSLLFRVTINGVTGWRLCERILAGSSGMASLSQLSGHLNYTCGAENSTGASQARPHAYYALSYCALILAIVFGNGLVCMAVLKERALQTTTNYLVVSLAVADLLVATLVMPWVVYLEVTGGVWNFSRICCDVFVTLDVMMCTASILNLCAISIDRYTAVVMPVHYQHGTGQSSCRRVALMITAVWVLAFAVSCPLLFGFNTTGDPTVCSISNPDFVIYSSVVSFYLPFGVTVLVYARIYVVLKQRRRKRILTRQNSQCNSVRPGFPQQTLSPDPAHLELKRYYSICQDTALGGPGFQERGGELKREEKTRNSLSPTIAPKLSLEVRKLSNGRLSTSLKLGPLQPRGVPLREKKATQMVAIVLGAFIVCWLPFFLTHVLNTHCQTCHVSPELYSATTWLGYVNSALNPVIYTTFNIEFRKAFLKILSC
T3 sequence (P50130 whole entry): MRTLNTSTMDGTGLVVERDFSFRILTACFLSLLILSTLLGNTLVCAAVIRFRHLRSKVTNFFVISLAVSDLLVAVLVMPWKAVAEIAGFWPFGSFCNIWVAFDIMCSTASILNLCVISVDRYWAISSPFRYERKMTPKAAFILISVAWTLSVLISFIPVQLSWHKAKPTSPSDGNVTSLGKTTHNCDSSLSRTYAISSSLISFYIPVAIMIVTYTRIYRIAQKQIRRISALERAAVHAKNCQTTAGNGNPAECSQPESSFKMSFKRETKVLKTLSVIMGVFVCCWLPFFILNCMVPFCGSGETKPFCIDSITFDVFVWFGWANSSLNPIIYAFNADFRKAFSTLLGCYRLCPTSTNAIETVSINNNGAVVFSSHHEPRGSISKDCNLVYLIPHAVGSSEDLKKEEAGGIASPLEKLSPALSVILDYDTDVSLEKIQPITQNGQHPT
human D3R, sequence (P35462 whole entry): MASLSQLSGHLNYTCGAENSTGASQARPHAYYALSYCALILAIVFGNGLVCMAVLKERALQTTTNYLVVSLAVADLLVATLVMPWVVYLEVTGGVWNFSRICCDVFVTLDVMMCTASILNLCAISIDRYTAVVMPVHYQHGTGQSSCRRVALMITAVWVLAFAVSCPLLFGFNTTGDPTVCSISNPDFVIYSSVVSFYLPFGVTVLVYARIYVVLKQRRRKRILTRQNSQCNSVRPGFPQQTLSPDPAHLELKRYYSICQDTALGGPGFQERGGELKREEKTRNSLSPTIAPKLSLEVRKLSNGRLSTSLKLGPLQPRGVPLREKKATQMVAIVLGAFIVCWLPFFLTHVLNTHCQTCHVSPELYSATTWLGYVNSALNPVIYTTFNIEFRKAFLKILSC
human isoform of D1R, sequence (P21728 whole entry, canonical isoform): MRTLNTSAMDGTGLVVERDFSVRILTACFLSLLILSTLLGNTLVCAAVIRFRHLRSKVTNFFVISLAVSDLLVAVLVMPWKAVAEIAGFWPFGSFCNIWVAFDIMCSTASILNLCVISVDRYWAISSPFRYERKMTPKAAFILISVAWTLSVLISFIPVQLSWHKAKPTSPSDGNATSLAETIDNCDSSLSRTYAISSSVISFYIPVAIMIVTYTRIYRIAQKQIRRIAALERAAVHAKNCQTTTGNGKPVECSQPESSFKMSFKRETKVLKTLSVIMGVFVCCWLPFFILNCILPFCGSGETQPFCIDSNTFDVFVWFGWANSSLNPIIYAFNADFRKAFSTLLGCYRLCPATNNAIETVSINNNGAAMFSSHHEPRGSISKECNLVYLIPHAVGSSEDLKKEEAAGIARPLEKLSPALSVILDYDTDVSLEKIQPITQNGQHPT

Structure (SMILES) | Ki [1] | Ki [2] | Ki [3] | Ki [4] | Ki [5] | Ki [6] | Ki [7] | Ki [8] | other results
CCCN(CCCCc1cn(-c2ccc(CNS(=O)(=O)c3cccc4c(N(C)C)cccc34)cc2)nn1)C1Cc2ccccc2C1 [4a] | 27 nM | 0.29 ± 0.02 nM | 5.2 ± 0.6 nM | 27 ± 3 nM | 590 nM | 29 nM | 220 nM | 1.7 ± 0.3 nM | 
CCCN(CCCCc1cn(-c2ccc(C(=O)NCCCN)cc2)nn1)C1Cc2ccccc2C1 [7a] | 13 nM | 0.26 ± 0.03 nM | 3.5 ± 0.4 nM | 8.5 ± 0.8 nM | 3600 nM | 37 nM | 400 nM | 1.8 ± 0.2 nM | 
CC(C)(C)c1nc(N2CCN(CCCCc3cn(-c4ccc(C#N)cc4)nn3)CC2)cc(C(F)(F)F)n1 [2d] | 4100 nM | 9.5 ± 1.9 nM | 360 ± 60 nM | 5000 nM | 5500 nM | 1100 nM | 4400 nM | 350 ± 30 nM | 
CN(C)c1cccc2c(S(=O)(=O)NCc3ccc(-n4cc(CCCCN5CCN(c6cccc(Cl)c6Cl)CC5)nn4)cc3)cccc12 [4b] | 78 nM | 1.9 ± 0.7 nM | 20 ± 8 nM | 59 ± 20 nM | 190 nM | 7.9 nM | 390 nM | 5.1 ± 1.7 nM | 
CCCN(CCCCc1cn(-c2ccc(CNC(=O)c3ccc(-c4c5ccc(=NCC(F)(F)F)cc-5oc5cc(NCC(F)(F)F)ccc45)c(C(=O)O)c3)cc2)nn1)C1Cc2ccccc2C1 [10a] |  | 0.97 ± 0.23 nM | 46 ± 7 nM | 56 ± 4 nM |  | 100 nM |  | 21 ± 4 nM | EC50 ([9]; mean ± SEM): 410 ± 70 nM; Emax [9]: 89 ± 3%; koff [10]: 0.0009 s⁻¹; residence time [10]: 19 ± 1 min; kon ([10]; read-out: Kon association rate constant): 170000 M⁻¹ s⁻¹; Ki [11]: 310 nM
CCCN(CCCCc1cn(-c2ccc(C(=O)NCCCNC(=O)Cc3ccc4c(c3)C(C)(C)C3=C5C=C6C7=[N+](CCC6OC5CCN34)c3ccc(S(=O)(=O)[O-])cc3C7(C)C)cc2)nn1)C1Cc2ccccc2C1 (stereo not drawn) [10b] | 120 nM |  |  |  | 5100 nM | 87 nM | 330 nM |  | Ki [2, 12]: 0.9 ± 0.26 nM; EC50 [9, 13]: 410 ± 60 nM; Emax [9]: 79 ± 3%; Ki [3, 14]: 10 ± 2 nM; Ki [4, 15]: 50 ± 7 nM; Ki [8, 16]: 4.8 ± 1 nM
CN(C)c1cccc2c(S(=O)(=O)NCc3ccc(-n4cc(CCCCN5CCN(c6cc(C(F)(F)F)nc(C(C)(C)C)n6)CC5)nn4)cc3)cccc12 [4d] | > 10000 nM | 11 ± 2 nM | 7600 nM | > 10000 nM | > 10000 nM | 3000 nM | > 10000 nM | 6000 nM | decrease of D2LR affinity by introduction of the dansyl moiety (factor) ([3]; 4d versus 2d): ~ 20; decrease of D2SR affinity by introduction of the dansyl moiety (factor) ([8]; 4d versus 2d): ~ 20
COc1ccccc1N1CCN(CCCCc2cn(-c3ccc(CNS(=O)(=O)c4cccc5c(N(C)C)cccc45)cc3)nn2)CC1 [4c] | 55 nM | 6.5 ± 2.3 nM | 17 ± 7 nM | 32 ± 6 nM | 180 nM | 1.1 nM | 450 nM | 8.4 ± 3.4 nM | 
CCCN(CCCCc1cn(-c2ccc(C(=O)NCCCNS(=O)(=O)c3cccc4c(N(C)C)cccc34)cc2)nn1)C1Cc2ccccc2C1 [8a] | 70 nM | 0.32 ± 0.05 nM | 1.2 ± 0.2 nM | 10 ± 4 nM | 1100 nM | 22 nM | 690 nM | 0.44 ± 0.12 nM | EC50 ([9]; mean ± SEM): 51 ± 11 nM; Emax [9]: 98 ± 2%
CN(C)c1cccc2c(S(=O)(=O)NCCCNC(=O)c3ccc(-n4cc(CCCCN5CCN(c6cccc(Cl)c6Cl)CC5)nn4)cc3)cccc12 [8b] | 170 nM | 1.9 ± 0.9 nM | 13 ± 6 nM | 130 ± 10 nM | 340 nM | 23 nM | 380 nM | 3.6 ± 1.6 nM | 
CCCN(CCCCc1cn(-c2ccc(C(=O)NCCCNC(=O)c3ccc(-c4c5ccc(=N)c(S(=O)(=O)O)c-5oc5c(S(=O)(=O)O)c(N)ccc45)c(C(=O)O)c3)cc2)nn1)C1Cc2ccccc2C1 [10c] | 85 nM |  |  |  | 5100 nM | 150 nM | 2200 nM |  | Ki [2, 12]: 0.76 ± 0.11 nM; EC50 [9, 13]: 100 ± 20 nM; Emax [9]: 93 ± 3%; Ki [3, 14]: 23 ± 5 nM; Ki [4, 15]: 47 ± 9 nM; Ki [8, 16]: 15 ± 4 nM
N#Cc1ccc(-n2cc(CCCCN3CCN(c4cccc(Cl)c4Cl)CC3)nn2)cc1 [2b] | 260 nM | 1 ± 0.2 nM | 15 ± 5 nM | 120 ± 61 nM | 540 nM | 4.9 nM | 1100 nM | 6.3 ± 0.2 nM | 
COc1ccccc1N1CCN(CCCCc2cn(-c3ccc(C#N)cc3)nn2)CC1 [2c] | 25 nM | 13 ± 4 nM | 77 ± 17 nM | 140 ± 10 nM | 1100 nM | 2.4 nM | 600 nM | 34 ± 8 nM | 
CCCN(CCCCc1cn(-c2ccc(C#N)cc2)nn1)C1Cc2ccccc2C1 [2a] | 52 nM | 0.41 ± 0.09 nM | 8.7 ± 2.5 nM | 33 ± 7 nM | 3000 nM | 87 nM | 850 nM | 6.5 ± 1.7 nM | 
